US12275731B2, “Azaindole inhibitors of wild-type and mutant forms of LRRK2” (DANA-FARBER CANCER INSTITUTE, INC., priority 2018, dated 2025)

Columns and labels:
Experiment in all cases: KinomeScan profiling
Format in all cases: binding
[1] = target: T1, GRK7 (Homo sapiens, UniProt Q8WTQ7); details: GRK7, 1 μM; read-out: % control
T1 sequence (Q8WTQ7 1-553): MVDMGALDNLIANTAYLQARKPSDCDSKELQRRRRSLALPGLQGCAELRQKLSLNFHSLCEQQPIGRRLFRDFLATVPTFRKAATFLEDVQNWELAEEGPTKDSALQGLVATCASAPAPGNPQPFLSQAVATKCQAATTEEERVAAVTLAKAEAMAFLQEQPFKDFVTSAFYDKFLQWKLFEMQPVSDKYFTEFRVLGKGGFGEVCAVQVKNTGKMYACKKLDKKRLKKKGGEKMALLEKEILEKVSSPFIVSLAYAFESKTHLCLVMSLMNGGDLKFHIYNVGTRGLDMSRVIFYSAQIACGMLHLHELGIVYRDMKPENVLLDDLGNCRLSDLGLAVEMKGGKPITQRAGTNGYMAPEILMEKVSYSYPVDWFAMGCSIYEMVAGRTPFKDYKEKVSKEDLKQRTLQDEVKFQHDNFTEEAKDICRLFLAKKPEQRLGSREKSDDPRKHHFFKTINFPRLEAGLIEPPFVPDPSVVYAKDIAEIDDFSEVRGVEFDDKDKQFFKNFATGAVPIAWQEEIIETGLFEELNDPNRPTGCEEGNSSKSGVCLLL
Outline: (§1)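 Compounds were screened at 1 μM in DMSO across a 468-kinase KinomeScan panel. Binding was expressed as % control, scaled between a positive control (0%) and DMSO (100%) using luminescence signal. A value under 35% counted as active.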

[2] = target: EGFR(L747-S752del, P753S) (Homo sapiens, UniProt P00533, DEL747-752/P753S); details: read-out: % control
Outline: as §1

[3] = target: T2, MAK (Homo sapiens, UniProt P20794); details: read-out: % control
T2 sequence (P20794 1-623): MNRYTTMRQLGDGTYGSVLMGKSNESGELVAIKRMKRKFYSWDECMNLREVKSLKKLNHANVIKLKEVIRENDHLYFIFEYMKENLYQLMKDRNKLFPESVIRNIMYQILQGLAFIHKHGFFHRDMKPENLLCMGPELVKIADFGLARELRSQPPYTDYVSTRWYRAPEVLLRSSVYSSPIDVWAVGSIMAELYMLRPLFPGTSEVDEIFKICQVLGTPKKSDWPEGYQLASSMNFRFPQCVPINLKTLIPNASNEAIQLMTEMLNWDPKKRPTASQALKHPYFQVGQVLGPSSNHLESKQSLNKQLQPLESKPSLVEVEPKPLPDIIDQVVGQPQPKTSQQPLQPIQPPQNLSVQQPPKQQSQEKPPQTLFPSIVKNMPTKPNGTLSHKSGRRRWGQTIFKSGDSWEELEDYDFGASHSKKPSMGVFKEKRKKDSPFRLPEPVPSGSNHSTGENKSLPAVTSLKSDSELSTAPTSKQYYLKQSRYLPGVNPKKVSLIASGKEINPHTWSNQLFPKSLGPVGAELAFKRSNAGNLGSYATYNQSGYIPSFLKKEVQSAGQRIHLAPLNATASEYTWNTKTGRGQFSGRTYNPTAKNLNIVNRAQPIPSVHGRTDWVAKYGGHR
Outline: as §1

[4] = target: T3, ABL1(F317L)-phosphorylated (Homo sapiens, UniProt P00519, F317L); details: read-out: % control
T3 construct: purchased KinomeScan®
Outline: as §1

[5] = target: T4, TAOK2 (Homo sapiens, UniProt Q9UL54); details: TAOK2, 1 μM; read-out: % control
T4 construct: purchased KinomeScan® (panel service)
T4 sequence (Q9UL54 1-1235): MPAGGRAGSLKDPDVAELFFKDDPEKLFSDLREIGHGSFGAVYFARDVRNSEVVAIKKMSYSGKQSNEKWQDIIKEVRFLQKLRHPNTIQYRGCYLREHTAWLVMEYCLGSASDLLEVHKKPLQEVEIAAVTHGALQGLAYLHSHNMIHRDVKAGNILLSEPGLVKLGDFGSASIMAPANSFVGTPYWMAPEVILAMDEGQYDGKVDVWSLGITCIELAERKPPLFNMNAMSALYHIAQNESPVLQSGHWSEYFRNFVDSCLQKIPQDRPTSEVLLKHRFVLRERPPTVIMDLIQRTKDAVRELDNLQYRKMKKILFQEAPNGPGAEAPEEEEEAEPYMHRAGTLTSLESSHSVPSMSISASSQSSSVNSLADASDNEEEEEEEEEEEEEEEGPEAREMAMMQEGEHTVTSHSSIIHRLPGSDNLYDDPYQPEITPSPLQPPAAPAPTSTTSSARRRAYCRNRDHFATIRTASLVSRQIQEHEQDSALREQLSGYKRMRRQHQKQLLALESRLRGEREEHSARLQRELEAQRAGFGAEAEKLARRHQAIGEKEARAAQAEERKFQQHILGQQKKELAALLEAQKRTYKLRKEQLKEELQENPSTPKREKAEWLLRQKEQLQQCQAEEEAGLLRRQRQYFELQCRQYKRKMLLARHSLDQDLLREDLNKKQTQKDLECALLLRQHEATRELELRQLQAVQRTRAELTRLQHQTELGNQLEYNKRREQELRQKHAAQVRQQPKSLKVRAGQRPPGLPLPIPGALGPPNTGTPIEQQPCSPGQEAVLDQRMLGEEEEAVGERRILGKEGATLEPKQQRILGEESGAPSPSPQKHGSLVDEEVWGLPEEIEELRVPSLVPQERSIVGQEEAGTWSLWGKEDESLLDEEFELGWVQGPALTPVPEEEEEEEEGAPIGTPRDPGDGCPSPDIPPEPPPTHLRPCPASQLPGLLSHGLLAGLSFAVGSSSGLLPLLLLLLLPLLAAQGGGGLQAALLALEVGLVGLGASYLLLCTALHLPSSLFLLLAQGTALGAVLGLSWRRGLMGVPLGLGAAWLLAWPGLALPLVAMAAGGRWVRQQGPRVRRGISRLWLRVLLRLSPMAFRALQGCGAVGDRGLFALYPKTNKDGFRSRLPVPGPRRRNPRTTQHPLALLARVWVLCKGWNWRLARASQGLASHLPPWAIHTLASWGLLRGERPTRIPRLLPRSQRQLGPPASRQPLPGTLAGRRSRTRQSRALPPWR
Outline: as §1

[6] = target: GSK3A (Homo sapiens, UniProt P49840); details: read-out: % control
Outline: as §1

[7] = target: FGFR3(G697C) (Homo sapiens, UniProt P22607, G697C); details: read-out: % control
Outline: as §1

T3 sequence (P00519 whole entry F317L): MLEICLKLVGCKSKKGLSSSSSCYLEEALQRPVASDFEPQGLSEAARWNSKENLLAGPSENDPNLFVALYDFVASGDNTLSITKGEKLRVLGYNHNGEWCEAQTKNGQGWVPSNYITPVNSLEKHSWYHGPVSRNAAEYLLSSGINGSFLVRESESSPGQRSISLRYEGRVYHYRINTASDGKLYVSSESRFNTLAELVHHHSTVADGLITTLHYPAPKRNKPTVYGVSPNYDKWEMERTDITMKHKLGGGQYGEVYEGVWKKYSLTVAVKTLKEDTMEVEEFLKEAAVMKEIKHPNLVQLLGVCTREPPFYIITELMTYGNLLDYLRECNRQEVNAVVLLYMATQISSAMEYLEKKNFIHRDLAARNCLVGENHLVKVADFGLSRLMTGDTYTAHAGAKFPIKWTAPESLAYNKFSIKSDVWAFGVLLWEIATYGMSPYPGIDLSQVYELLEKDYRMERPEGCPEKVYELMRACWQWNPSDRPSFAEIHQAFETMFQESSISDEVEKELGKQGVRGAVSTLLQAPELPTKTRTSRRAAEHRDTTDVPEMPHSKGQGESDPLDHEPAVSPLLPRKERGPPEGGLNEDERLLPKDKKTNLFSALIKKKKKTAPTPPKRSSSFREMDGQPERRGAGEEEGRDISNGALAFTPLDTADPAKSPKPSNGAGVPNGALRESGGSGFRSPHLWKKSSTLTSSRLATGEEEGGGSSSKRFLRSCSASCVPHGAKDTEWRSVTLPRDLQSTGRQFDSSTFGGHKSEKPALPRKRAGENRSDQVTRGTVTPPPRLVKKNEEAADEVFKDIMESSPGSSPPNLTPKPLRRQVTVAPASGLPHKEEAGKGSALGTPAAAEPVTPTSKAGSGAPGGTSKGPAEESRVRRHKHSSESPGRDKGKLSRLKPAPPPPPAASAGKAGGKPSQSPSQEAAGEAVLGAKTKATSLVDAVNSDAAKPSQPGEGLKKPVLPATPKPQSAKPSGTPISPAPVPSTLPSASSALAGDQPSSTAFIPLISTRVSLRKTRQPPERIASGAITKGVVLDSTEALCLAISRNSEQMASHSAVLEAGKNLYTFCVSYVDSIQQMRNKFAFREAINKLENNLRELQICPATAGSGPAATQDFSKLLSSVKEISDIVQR
Chain of GSK3A (P49840 whole entry): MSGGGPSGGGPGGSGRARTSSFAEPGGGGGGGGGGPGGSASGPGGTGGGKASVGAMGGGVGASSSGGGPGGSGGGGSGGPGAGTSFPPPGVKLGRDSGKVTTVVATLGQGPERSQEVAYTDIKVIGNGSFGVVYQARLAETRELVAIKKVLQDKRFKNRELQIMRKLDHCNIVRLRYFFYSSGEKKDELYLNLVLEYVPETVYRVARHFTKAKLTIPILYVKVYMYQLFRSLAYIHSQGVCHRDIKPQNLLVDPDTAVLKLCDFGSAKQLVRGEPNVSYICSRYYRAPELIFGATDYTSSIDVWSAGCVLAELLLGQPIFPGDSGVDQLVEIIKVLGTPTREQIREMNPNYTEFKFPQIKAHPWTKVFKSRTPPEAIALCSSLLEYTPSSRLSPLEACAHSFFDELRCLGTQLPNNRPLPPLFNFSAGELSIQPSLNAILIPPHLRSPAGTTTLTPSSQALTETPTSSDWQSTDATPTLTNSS
Chain of FGFR3(G697C) (P22607 23-806 G697C): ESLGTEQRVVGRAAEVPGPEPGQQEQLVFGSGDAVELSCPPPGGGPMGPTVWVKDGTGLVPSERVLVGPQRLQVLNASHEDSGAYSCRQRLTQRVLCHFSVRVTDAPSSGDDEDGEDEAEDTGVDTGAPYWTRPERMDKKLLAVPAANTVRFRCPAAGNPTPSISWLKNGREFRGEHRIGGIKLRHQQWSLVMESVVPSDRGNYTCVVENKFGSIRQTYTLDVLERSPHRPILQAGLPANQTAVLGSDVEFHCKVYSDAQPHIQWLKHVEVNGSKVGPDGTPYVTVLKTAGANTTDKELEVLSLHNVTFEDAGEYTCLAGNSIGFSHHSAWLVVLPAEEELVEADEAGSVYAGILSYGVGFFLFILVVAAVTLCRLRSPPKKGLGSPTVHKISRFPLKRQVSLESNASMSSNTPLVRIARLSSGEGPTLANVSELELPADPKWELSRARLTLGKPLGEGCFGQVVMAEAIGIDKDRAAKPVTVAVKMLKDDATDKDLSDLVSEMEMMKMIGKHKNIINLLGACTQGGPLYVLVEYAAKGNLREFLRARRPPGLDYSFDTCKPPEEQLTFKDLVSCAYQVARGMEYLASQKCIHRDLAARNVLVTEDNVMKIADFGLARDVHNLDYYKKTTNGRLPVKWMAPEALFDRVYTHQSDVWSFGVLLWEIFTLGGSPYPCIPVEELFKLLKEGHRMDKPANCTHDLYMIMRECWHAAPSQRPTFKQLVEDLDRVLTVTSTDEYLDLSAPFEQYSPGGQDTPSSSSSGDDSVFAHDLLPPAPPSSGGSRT
Chain of EGFR(L747-S752del, P753S) (P00533 with tags, fused parts or gaps DEL747-752/P753S): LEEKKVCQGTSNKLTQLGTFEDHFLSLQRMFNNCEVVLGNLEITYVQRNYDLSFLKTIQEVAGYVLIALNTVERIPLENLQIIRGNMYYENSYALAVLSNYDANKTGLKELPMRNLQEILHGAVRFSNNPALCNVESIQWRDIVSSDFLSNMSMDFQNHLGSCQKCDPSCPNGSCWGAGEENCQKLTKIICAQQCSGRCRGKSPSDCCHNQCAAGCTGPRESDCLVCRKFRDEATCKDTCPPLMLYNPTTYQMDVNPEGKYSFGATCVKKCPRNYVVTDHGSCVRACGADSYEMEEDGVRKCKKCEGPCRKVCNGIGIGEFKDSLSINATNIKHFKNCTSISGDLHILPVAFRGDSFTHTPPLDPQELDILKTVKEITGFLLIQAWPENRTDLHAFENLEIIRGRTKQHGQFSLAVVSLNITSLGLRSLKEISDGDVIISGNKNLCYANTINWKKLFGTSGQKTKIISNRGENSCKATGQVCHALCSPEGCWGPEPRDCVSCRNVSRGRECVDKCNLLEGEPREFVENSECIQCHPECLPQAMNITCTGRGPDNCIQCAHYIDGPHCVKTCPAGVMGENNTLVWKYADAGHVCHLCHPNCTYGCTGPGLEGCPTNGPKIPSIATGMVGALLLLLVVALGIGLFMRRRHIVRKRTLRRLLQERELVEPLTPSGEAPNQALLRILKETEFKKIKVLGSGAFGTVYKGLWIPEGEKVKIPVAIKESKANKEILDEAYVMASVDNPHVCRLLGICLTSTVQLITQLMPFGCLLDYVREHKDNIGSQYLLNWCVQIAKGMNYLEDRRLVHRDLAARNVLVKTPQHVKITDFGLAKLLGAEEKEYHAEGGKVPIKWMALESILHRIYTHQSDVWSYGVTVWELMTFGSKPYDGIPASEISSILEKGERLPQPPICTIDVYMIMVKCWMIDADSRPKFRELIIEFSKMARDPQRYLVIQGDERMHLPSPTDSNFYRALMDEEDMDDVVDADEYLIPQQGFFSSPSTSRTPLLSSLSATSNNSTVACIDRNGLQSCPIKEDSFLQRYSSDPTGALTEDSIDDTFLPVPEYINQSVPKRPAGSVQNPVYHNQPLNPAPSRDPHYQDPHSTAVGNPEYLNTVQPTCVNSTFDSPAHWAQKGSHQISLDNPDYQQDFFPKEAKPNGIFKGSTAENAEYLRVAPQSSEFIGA

SMILES | remaining binding at 1 µM [1] | remaining binding at 1 µM [2] | remaining binding at 1 µM [3] | remaining binding at 1 µM [4] | remaining binding at 1 µM [5] | remaining binding at 1 µM [6] | remaining binding at 1 µM [7]
CNc1c(-c2cnn([C@H]3CCN(C(C)=O)C[C@@H]3F)c2)cnc2[nH]cc(Cl)c12 [Compound 77, 1-((3S,4S)-4-(4-(3-chloro-4-(methylamino)-1H-pyrrolo[2,3-b]pyridin-5-yl)-1H-pyrazol-1-yl)-3-fluoropiperidin-1-yl)ethan-1-one] | 100% | 92% | 100% | 91% | 69% | 98% | 51%
CNc1c(-c2ccc(C(=O)N3CCC(N4CCOCC4)CC3)cc2)cnc2[nH]cc(Cl)c12 [Compound 96, (4-(3-chloro-4-(methylamino)-1H-pyrrolo[2,3-b]pyridin-5-yl)phenyl)(4-morpholinopiperidin-1-yl)methanone] | 100% | 77% | 97% | 81% | 69% | 65% | 55%
O=C(c1ccc(-c2cnc3[nH]cc(Cl)c3c2NC2CCCC2)cc1)N1CCC(N2CCOCC2)CC1 [Compound 101, (4-(3-chloro-4-(cyclopentylamino)-1H-pyrrolo[2,3-b]pyridin-5-yl)phenyl)(4-morpholinopiperidin-1-yl)methanone] | 94% | 100% | 87% | 43% | 81% | 42% | 74%
